From article PMC10313624 (EJNMMI Radiopharmacy and Chemistry, 2023)
Where two headings read alike, the source gives them in different places. Marks after values point to notes of the source that are not given here. Bridge positions count the residues as written; N and C are the ends. Square brackets hold non-standard residues; d marks the D form. Peptide text beside a SMILES is read from it. * marks the point of attachment. DOTA = O=C(O)CN1CCN(CC(=O)O)CCN(CC(=O)*)CCN(CC(=O)O)CC1; dPhe(4-NHCONH2) = NC(=O)Nc1ccc(C[C@@H](N)C(=O)O)cc1; Dihydroorotyl(S) = O=C1C[C@@H](C(=O)*)NC(=O)N1; Phe(4-Cl) = N[C@@H](Cc1ccc(Cl)cc1)C(=O)O; Phe(4-NH2) = Nc1ccc(C[C@H](N)C(=O)O)cc1

Legend:
SSTR2 = tested on: SSTR2; design: method as in Hou et al. [2022]; Zhu et al. [2020]; Fani et al. [2017]; settings: compared to DOTA-TATE; ref Hou et al. [2022]; Zhu et al. [2020]; Fani et al. [2017]; cited from earlier work
in vitro = in vitro ADME; settings: mouse, serum
Procedure: (§1) Haarlerbergweg, The Netherlands) (250 and 100 µL, respectively) at 37 °C. […] In mouse serum, the proteins were precipitated by adding an aliquot of the radiotracer to an equal volume of acetonitrile. The vial was vortexed vigorously and centrifuged for 20 min at 10,000 rpm. Stability studies were monitored by radio-HPLC (Additional file 1: Figs. S5 and S6).

[1] = format: physicochemical; settings: 37 °C, radio-HPLC, n = 1
Procedure: as §1

[2] = in vivo; cited from earlier work

In the case of C[C@@H](O)[C@@H]1NC(=O)[C@H](CCCCN)NC(=O)[C@@H](Cc2ccc(NC(N)=O)cc2)NC(=O)[C@H](Cc2ccc(NC(=O)[C@@H]3CC(=O)NC(=O)N3)cc2)NC(=O)[C@H](NC(=O)[C@H](Cc2ccc(Cl)cc2)NC(=O)CN2CCN(CC(=O)O)CCN(CC(=O)O)CCN(CC(=O)O)CC2)CSSC[C@@H](C(=O)N[C@H](Cc2ccc(O)cc2)C(N)=O)NC1=O [DOTA-JR11] ({DOTA}-[Phe(4-Cl)][dC][Phe(4-NH2)](Dihydroorotyl(S))[dPhe(4-NHCONH2)]KTC[dY]-NH2; disulfide 2-7; C-terminus assumed), the “binding affinity to SSTR2” value (SSTR2) is given as “lower binding affinity”.
For C[C@@H](O)[C@@H]1NC(=O)[C@H](CCCCN)NC(=O)[C@@H](Cc2ccc(NC(N)=O)cc2)NC(=O)[C@H](Cc2ccc(NC(=O)[C@@H]3CC(=O)NC(=O)N3)cc2)NC(=O)[C@H](NC(=O)[C@H](Cc2ccc(Cl)cc2)NC(=O)CN2CCN(CC(=O)O)CCN(CC(=O)O)CCN(CC(=O)O)CC2)CSSC[C@@H](C(=O)N[C@H](Cc2ccc(O)cc2)C(N)=O)NC1=O [[^177Lu]Lu-DOTA-JR11, metal not drawn] ({DOTA}-[Phe(4-Cl)][dC][Phe(4-NH2)](Dihydroorotyl(S))[dPhe(4-NHCONH2)]KTC[dY]-NH2; disulfide 2-7 (inferred); C-terminus assumed), the remaining at 2 h, 12 MBq/mL (in vitro) was 94.5% and the remaining at 24 h, 12 MBq/mL (in vitro) was 93.7%.
For C[C@@H](O)[C@@H]1NC(=O)[C@H](CCCCN)NC(=O)[C@@H](Cc2ccc(NC(N)=O)cc2)NC(=O)[C@H](Cc2ccc(NC(=O)[C@@H]3CC(=O)NC(=O)N3)cc2)NC(=O)[C@H](NC(=O)[C@H](Cc2ccc(Cl)cc2)NC(=O)CN2CCN(CC(=O)O)CCN(CC(=O)O)CCN(CC(=O)O)CC2)CSSC[C@@H](C(=O)N[C@H](Cc2ccc(O)cc2)C(N)=O)NC1=O [[^177Lu]Lu-DOTA-JR11] [metal not drawn] ({DOTA}-[Phe(4-Cl)][dC][Phe(4-NH2)](Dihydroorotyl(S))[dPhe(4-NHCONH2)]KTC[dY]-NH2; disulfide 2-7 (inferred); C-terminus assumed), the “PBS (%) intact radiolabeled peptide” value ([1]; 2 h, 1.2 MBq in 200 µL PBS) is given as 96.5%, the “PBS (%) intact radiolabeled peptide” value ([1]; 24 h, 1.2 MBq in 200 µL PBS) is given as 96.8% and the hematologic toxicity [2] is given as “severe grade 4 hematologic toxicity”.
Compound C[C@@H](O)[C@@H]1NC(=O)[C@H](CCCCN)NC(=O)[C@@H](Cc2ccc(NC(N)=O)cc2)NC(=O)[C@H](Cc2ccc(NC(=O)[C@@H]3CC(=O)NC(=O)N3)cc2)NC(=O)[C@H](NC(=O)[C@H](Cc2ccc(Cl)cc2)NC(=O)CN2CCN(CC(=O)O)CCN(CC(=O)O)CCN(CC(=O)O)CC2)CSSC[C@@H](C(=O)N[C@H](Cc2ccc(O)cc2)C(N)=O)NC1=O [[^225Ac]Ac-DOTA-JR11, metal not drawn] ({DOTA}-[Phe(4-Cl)][dC][Phe(4-NH2)](Dihydroorotyl(S))[dPhe(4-NHCONH2)]KTC[dY]-NH2; disulfide 2-7 (inferred); C-terminus assumed) has a remaining at 22 h, 200 kBq/mL (in vitro) of 80.9%, a remaining at 24 h, 200 kBq/mL (in vitro) of 81.4% and a remaining at 27 h, 200 kBq/mL (in vitro) of 81%.
For C[C@@H](O)[C@@H]1NC(=O)[C@H](CCCCN)NC(=O)[C@@H](Cc2ccc(NC(N)=O)cc2)NC(=O)[C@H](Cc2ccc(NC(=O)[C@@H]3CC(=O)NC(=O)N3)cc2)NC(=O)[C@H](NC(=O)[C@H](Cc2ccc(Cl)cc2)NC(=O)CN2CCN(CC(=O)O)CCN(CC(=O)O)CCN(CC(=O)O)CC2)CSSC[C@@H](C(=O)N[C@H](Cc2ccc(O)cc2)C(N)=O)NC1=O [[^225Ac]Ac-DOTA-JR11] [metal not drawn] ({DOTA}-[Phe(4-Cl)][dC][Phe(4-NH2)](Dihydroorotyl(S))[dPhe(4-NHCONH2)]KTC[dY]-NH2; disulfide 2-7 (inferred); C-terminus assumed), the “PBS (%) intact radiolabeled peptide” value ([1]; radiolabeling condition 1, 22 h, 50 kBq in 500 µL PBS) was 76.9^a %, the “PBS (%) intact radiolabeled peptide” value ([1]; radiolabeling condition 2 (without L-melatonin), 24 h, 50 kBq in 500 µL PBS) was 56.6^b % and the “PBS (%) intact radiolabeled peptide” value ([1]; radiolabeling condition 3 (with L-melatonin), 27 h, 50 kBq in 500 µL PBS) was 81.0^c %.
